Experimental data reported in PubChem BioAssay (NCI).
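GI50 is the concentration that inhibits growth by half. At the TGI there is no net growth.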

Columns and labels:
Assay in all cases: NCI tumour cell line growth inhibition, 384-well format
[1] = test system: COLO 205 colon
[2] = test system: OVCAR-8 ovarian
[3] = test system: MALME-3M melanoma
[4] = test system: SNB-19 CNS
[5] = test system: HS 578T breast
[6] = test system: HL-60(TB) leukemia
[7] = test system: UACC-257 melanoma
[8] = test system: A498 renal
[9] = test system: RPMI-8226 leukemia
[10] = test system: NCI-H23 lung
[11] = test system: DU-145 prostate
[12] = test system: NCI-H226 lung
[13] = test system: KM12 colon
[14] = test system: ACHN renal
[15] = test system: SW-620 colon
[16] = test system: HOP-62 NSCLC
[17] = test system: NCI-H460 NSCLC
[18] = test system: 786-0 renal
[19] = test system: EKVX NSCLC
[20] = test system: BT-549 breast
[21] = test system: K-562 leukemia
[22] = test system: SR leukemia
[23] = test system: SK-MEL-5 melanoma
[24] = test system: HCC-2998 colon
[25] = test system: U251 glioblastoma
[26] = test system: MDA-MB-468 breast
[27] = test system: UO-31 renal
[28] = test system: OVCAR-5 ovarian
[29] = test system: NCI/ADR-RES ovarian
[30] = test system: SN12C renal
[31] = test system: SK-MEL-28 melanoma
[32] = test system: OVCAR-3 ovarian
[33] = test system: RXF 393 renal
[34] = test system: HOP-92 NSCLC
[35] = test system: MOLT-4 leukemia
[36] = test system: IGROV1 ovarian
[37] = test system: OVCAR-4 ovarian
[38] = test system: MDA-MB-435 melanoma
[39] = test system: CAKI-1 renal
[40] = test system: T-47D breast
[41] = test system: A549 NSCLC
[42] = test system: NCI-H322M lung
[43] = test system: M14 melanoma
[44] = test system: NCI-H522 lung
[45] = test system: UACC-62 melanoma
[46] = test system: HT29 colon
[47] = test system: CCRF-CEM leukemia
[48] = test system: SK-OV-3 ovarian
[49] = test system: MCF7 breast
[50] = test system: SNB-75 CNS
[51] = test system: PC-3 prostate
[52] = test system: SF-295 CNS
[53] = test system: SF-539 CNS
[54] = test system: LOX IMVI melanoma
[55] = test system: SF-268 CNS
[56] = test system: MDA-MB-231 breast
[57] = test system: HCT-15 colon
[58] = test system: TK-10 renal
[59] = test system: HCT-116 colon

## COCCn1c2c([n+](Cc3cnccn3)c1C)C(=O)c1ccccc1C2=O
[1]
  GI50: < 10 nM
  TGI: 11 nM
[2]
  GI50: < 10 nM
  TGI: < 10 nM
[3]
  GI50: 16.1 nM
  TGI: 37.9 nM
[4]
  GI50: < 10 nM
  TGI: < 10 nM
[5]
  GI50: 19.8 nM
  TGI: 125 nM
[6]
  GI50: < 10 nM
  TGI: < 10 nM
[7]
  GI50: < 10 nM
  TGI: < 10 nM
[8]
  GI50: 159 nM
  TGI: 1230 nM
[9]
  GI50: < 10 nM
  TGI: < 10 nM
[10]
  GI50: < 10 nM
  TGI: < 10 nM
[11]
  GI50: < 10 nM
  TGI: < 10 nM
[12]
  GI50: 11.4 nM
  TGI: 40.4 nM
[13]
  GI50: 26 nM
  TGI: 114 nM
[14]
  GI50: 17.6 nM
  TGI: 45.7 nM
[15]
  GI50: < 10 nM
  TGI: 10.3 nM
[16]
  GI50: < 10 nM
  TGI: 15.2 nM
[17]
  GI50: < 10 nM
  TGI: 12.2 nM
[18]
  GI50: < 10 nM
  TGI: 13 nM
[19]
  GI50: < 10 nM
  TGI: < 10 nM
[20]
  GI50: < 10 nM
  TGI: < 10 nM
[21]
  GI50: < 10 nM
  TGI: < 10 nM
[22]
  GI50: < 10 nM
  TGI: < 10 nM
[23]
  GI50: < 10 nM
  TGI: < 10 nM
[24]
  GI50: < 10 nM
  TGI: 14.3 nM
[25]
  GI50: < 10 nM
  TGI: < 10 nM
[26]
  GI50: < 10 nM
  TGI: < 10 nM
[27]
  GI50: 377 nM
  TGI: 7730 nM
[28]
  GI50: < 10 nM
  TGI: 16.5 nM
[29]
  GI50: 18800 nM
  TGI: > 100000 nM
[30]
  GI50: < 10 nM
  TGI: < 10 nM
[31]
  GI50: < 10 nM
  TGI: < 10 nM
[32]
  GI50: < 10 nM
  TGI: < 10 nM
[33]
  GI50: < 10 nM
  TGI: 12.1 nM
[34]
  GI50: < 10 nM
  TGI: < 10 nM
[35]
  GI50: < 10 nM
  TGI: < 10 nM
[36]
  GI50: < 10 nM
  TGI: < 10 nM
[37]
  GI50: < 10 nM
  TGI: < 10 nM
[38]
  GI50: < 10 nM
  TGI: < 10 nM
[39]
  GI50: < 10 nM
  TGI: < 10 nM
[40]
  GI50: < 10 nM
  TGI: < 10 nM
[41]
  GI50: < 10 nM
  TGI: 12.9 nM
[42]
  GI50: < 10 nM
  TGI: 25.9 nM
[43]
  GI50: < 10 nM
  TGI: 12 nM
[44]
  GI50: < 10 nM
  TGI: < 10 nM
[45]
  GI50: < 10 nM
  TGI: < 10 nM
[46]
  GI50: 18 nM
  TGI: 55.4 nM
[47]
  GI50: < 10 nM
  TGI: 16.5 nM
[48]
  GI50: < 10 nM
  TGI: < 10 nM
[49]
  GI50: < 10 nM
  TGI: < 10 nM
[50]
  GI50: < 10 nM
  TGI: < 10 nM
[51]
  GI50: < 10 nM
  TGI: < 10 nM
[52]
  GI50: 10.4 nM
  TGI: 22.5 nM
[53]
  GI50: < 10 nM
  TGI: < 10 nM
[54]
  GI50: < 10 nM
  TGI: < 10 nM
[55]
  GI50: < 10 nM
  TGI: < 10 nM
[56]
  GI50: < 10 nM
  TGI: < 10 nM
[57]
  GI50: 40.3 nM
  TGI: 735 nM
[58]
  GI50: < 10 nM
  TGI: 24 nM

## COc1cc(N2CCC(N)CC2)ccc1Nc1ncc(Cl)c(-c2c[nH]c3ccccc23)n1
[1]
  GI50: 44.1 nM
  TGI: 1070 nM
[2]
  GI50: 1170 nM
  TGI: 2410 nM
[3]
  GI50: 172 nM
  TGI: 1510 nM
[4]
  GI50: 1570 nM
  TGI: 2940 nM
[5]
  GI50: 651 nM
  TGI: 1870 nM
[6]
  GI50: 21.4 nM
  TGI: 424 nM
[7]
  GI50: 789 nM
  TGI: 2100 nM
[8]
  GI50: 296 nM
  TGI: 1330 nM
[9]
  GI50: 476 nM
  TGI: 1580 nM
[10]
  GI50: 318 nM
  TGI: 1760 nM
[11]
  GI50: 389 nM
  TGI: 1710 nM
[12]
  GI50: 112 nM
  TGI: 663 nM
[13]
  GI50: 209 nM
  TGI: 679 nM
[14]
  GI50: 535 nM
  TGI: 1860 nM
[15]
  GI50: 254 nM
  TGI: 1330 nM
[16]
  GI50: 1220 nM
  TGI: 2490 nM
[17]
  GI50: 184 nM
  TGI: 1390 nM
[18]
  GI50: 1010 nM
  TGI: 2190 nM
[19]
  GI50: 215 nM
  TGI: 1470 nM
[20]
  GI50: 1140 nM
  TGI: 2360 nM
[21]
  GI50: 876 nM
  TGI: 2130 nM
[23]
  GI50: 610 nM
  TGI: 2040 nM
[24]
  GI50: 349 nM
  TGI: 1680 nM
[25]
  GI50: 1210 nM
  TGI: 2480 nM
[26]
  GI50: 667 nM
  TGI: 1930 nM
[27]
  GI50: 655 nM
  TGI: 1950 nM
[29]
  GI50: 1480 nM
  TGI: 2810 nM
[30]
  GI50: 513 nM
  TGI: 1860 nM
[31]
  GI50: 1270 nM
  TGI: 2530 nM
[32]
  GI50: 666 nM
  TGI: 2040 nM
[33]
  GI50: 739 nM
  TGI: 2050 nM
[34]
  GI50: 377 nM
  TGI: 1670 nM
[35]
  GI50: 437 nM
  TGI: 1640 nM
[36]
  GI50: 284 nM
  TGI: 1000 nM
[37]
  GI50: 1210 nM
  TGI: 2480 nM
[38]
  GI50: 395 nM
  TGI: 1790 nM
[39]
  GI50: 252 nM
  TGI: 1070 nM
[40]
  GI50: 1180 nM
  TGI: 2410 nM
[41]
  GI50: 858 nM
  TGI: 2120 nM
[42]
  GI50: 254 nM
  TGI: 1420 nM
[59]
  GI50: 361 nM
  TGI: 1580 nM
[43]
  GI50: 388 nM
  TGI: 1620 nM
[44]
  GI50: 221 nM
  TGI: 1230 nM
[45]
  GI50: 385 nM
  TGI: 1770 nM
[46]
  GI50: 55.9 nM
  TGI: 1350 nM
[47]
  GI50: 886 nM
  TGI: 2100 nM
[48]
  GI50: 334 nM
  TGI: 1440 nM
[49]
  GI50: 59.5 nM
  TGI: 1220 nM
[50]
  GI50: 322 nM
  TGI: 1440 nM
[51]
  GI50: 1090 nM
  TGI: 2330 nM
[52]
  GI50: 1450 nM
  TGI: 2770 nM
[53]
  GI50: 453 nM
  TGI: 1820 nM
[54]
  GI50: 541 nM
  TGI: 1860 nM
[55]
  GI50: 1150 nM
  TGI: 2400 nM
[56]
  GI50: 1080 nM
  TGI: 2300 nM
[57]
  GI50: 265 nM
  TGI: 1460 nM
[58]
  GI50: 988 nM
  TGI: 2180 nM
